Patent US10640507B2, “PBD antibacterial agents” (KING'S COLLEGE LONDON, priority 2015, dated 2020)
Converted amounts (≈) assume the structure as drawn. Read-outs that look alike come from different tables or passages of the source.

How the values were obtained:
K. pneumonia NCTC 13439 = experiment: General MIC protocol, Gram negative; format: cell-based; details: Klebsiella pneumoniae, NCTC13439
Experimental: (§1) General Minimum Inhibitory Concentration (MIC) Protocol
(§2) 1. Grow up cultures of bacterial strains to be tested overnight.
(§3) 2. Dilute down overnight cultures to concentration of 1×10^6 bacteria/ml (OD0.01) in Tryptic soy broth (TSB).
(§4) 3. Add 100 μl of TSB media to column 2-column 12 in 96 well plate (keeping column 1 clear).
(§5) 4. Make up compound to a concentration of 64 μg/ml in water (or alternatively to twice the chosen maximum concentration to be tested).
(§6) 5. Add 100 μl of antibiotic solution to the 1st and 2nd columns.
(§7) 6. Using a multichannel pipette take 100 μl from the 2nd column wells and pipette into 3rd column wells and repeat down the 96 well plate (remembering to include controls i.e. uninfected media and media with no antibiotic).
(§8) 7. To each well (except uninfected control row H) add 100 μl of bacterially infected media at a concentration of 1×10^6/ml.
(§9) 8. This dilutes down the concentration of the antibiotic by half (top dose is therefore 32 μg/ml in column 1) and also gives you a starting bacterial concentration of 5×10^5/ml.
(§10) 9. Wrap plate with parafilm to prevent evaporation.
(§11) 10. Leave at desired temperature (37° C. unless specified elsewhere) for 20 hours.
(§12) 11. Next day check plates for growth and measure optical density (i.e. absorbance) at a wavelength of 600 nm (OD600).
(§13) An example of such a plate is shown in FIG. 1 where column A represents wells that receive the top dose 100 μl; column B represents wells that receive the top dose 100 μl+100 μl TSB; and column C represents wells that receive 100 μl TSB. Row H which is marked by a box labelled D represents a blank where the cells receive no bacteria.

K. pneumonia MGH 78578 = experiment: General MIC protocol, Gram negative; format: cell-based; details: Klebsiella pneumoniae, MGH78578
Experimental: as §1, §2, §3, §4, §5, §6, §7, §8, §9, §10, §11, §12, §13

P. aeruginosa PA01 = experiment: General MIC protocol, Gram negative; format: cell-based
Experimental: as §1, §2, §3, §4, §5, §6, §7, §8, §9, §10, §11, §12, §13

E. coli Topo IV = molecular target: T1, E. coli Topo IV (Escherichia coli, UniProt P0AFI2+P20083); experiment: Topo IV microplate assay; format: biochemical; details: agent 10-75 μM, FIG. 5
T1 construct: purchased Inspiralis (Norwich, UK) TRIV01
Experimental: (§14) The effect of the antimicrobial agents on gyrase was assessed using E. coli gyrase microplate assay kit (# TRG01) and with S. aureus gyrase microplate assay kit (# SATRG01). The effect of topoisomerase IV using was assessed using E. coli Topo IV microplate assay kit (# TRIV01) and with the S. aureus Topo IV microplate assay kit (# SATRIV01). All of these assay kits were obtained from Inspiralis (Norwich, UK). These assay kits are supplied with the relevant enzyme, substrate and buffers.
(§15) 1. Rehydrate wells with 3×200 μl Wash buffer (diluted from 20× stock with ultra-pure water).
(§16) 2. Immobilise 100 μl of 500 nM TF01 oligo in each well (5 μl of 10 μM TF01 oligo in 95 μl wash buffer).
(§17) 3. Incubate 5 minutes at room temperature.
(§18) 4. Wash off excess oligo with 3×200 μl Wash buffer.
(§19) 5. Incubate 2U (0.4 μl stock) of gyrase with 0.75 μg of relaxed pN01 in a reaction volume of 30 μl at 37° C. for 30 minutes in assay buffer—This is the part agent is added therefore the reaction volume is adjusted to account for this.
(§20) 6. Add 100 μl TF buffer (diluted from 20× stock) to well and incubate for a further 30 minutes at room temperature to allow triplex formation.
(§21) 7. Remove liquid from well and wash with 3×200 μl TF buffer to wash away unbound plasmid.
(§22) 8. Stain with DNA detection dye (diluted to ix with T10 buffer). Add 200 μl per well and incubate for 10-20 minutes at room temperature.
(§23) 9. Mix well and read in fluorescence plate reader Excitation wavelength: 495 nm; Emission wavelength: 537 nm. Use 485/520 filters in plate reader in 231.
(§24) 10. If required 10 μl of sample can be used to run on 1% agarose gel.
(§25) As the reaction volume is 30 μl make concentrations at 30× greater than required so 1 μl of the appropriate concentration can be added to the reaction. For each agent concentrations from a range of 10-75 μM.
(§26) The procedure for assessing effect of the agents on topoisomerase IV was the same as for the gyrase apart from the following changes; 1.5 U of topoisomerase IV was used in place of gyrase and supercoiled pN01 instead of relaxed pN01 was used in step 5. Results obtained were normalised using the following equation: […]
(§27) Xmin—minima among all data points
(§28) Xmax—maxima among all data points
(§29) Xi0-1—data point normalised between 0-1

S. aureus Topo IV = molecular target: T2, S. aureus Topo IV (Staphylococcus aureus, UniProt P0C1S7+P0C1U9); experiment: Topo IV microplate assay; format: biochemical; details: agent 10-75 μM, FIG. 5
T2 construct: purchased Inspiralis (Norwich, UK) SATRIV01
Experimental: as §14, §15, §16, §17, §18, §19, §20, §21, §22, §23, §24, §25, §26, §27, §28, §29

[1] = test system: E. faecium VRE NCTC 12204; experiment: General MIC protocol, Gram positive panel; format: cell-based
Experimental: as §1, §2, §3, §4, §5, §6, §7, §8, §9, §10, §11, §12, §13

[2] = test system: E. faecalis VRE NCTC 12201; experiment: General MIC protocol, Gram positive panel; format: cell-based
Experimental: as §1, §2, §3, §4, §5, §6, §7, §8, §9, §10, §11, §12, §13

E. faecalis VSE NCTC 775 = experiment: General MIC protocol, Gram positive panel; format: cell-based; details: Enterococcus faecalis, NCTC775; VSE 775
Experimental: as §1, §2, §3, §4, §5, §6, §7, §8, §9, §10, §11, §12, §13

EMRSA-15 = experiment: General MIC protocol, Gram positive panel; format: cell-based
Experimental: as §1, §2, §3, §4, §5, §6, §7, §8, §9, §10, §11, §12, §13

[3] = test system: methicillin sensitive S. aureus ATTC 9144 (NCTC 6571); experiment: General MIC protocol, Gram positive panel; format: cell-based; details: Staphylococcus aureus, MSSA / NCTC 6571; MSSA 9144
Experimental: as §1, §2, §3, §4, §5, §6, §7, §8, §9, §10, §11, §12, §13

EMRSA-16 = experiment: General MIC protocol, Gram positive panel; format: cell-based
Experimental: as §1, §2, §3, §4, §5, §6, §7, §8, §9, §10, §11, §12, §13

[4] = Pseudomonas aeruginosa, PA01, PA01

T2 sequence (P0C1U9 whole entry): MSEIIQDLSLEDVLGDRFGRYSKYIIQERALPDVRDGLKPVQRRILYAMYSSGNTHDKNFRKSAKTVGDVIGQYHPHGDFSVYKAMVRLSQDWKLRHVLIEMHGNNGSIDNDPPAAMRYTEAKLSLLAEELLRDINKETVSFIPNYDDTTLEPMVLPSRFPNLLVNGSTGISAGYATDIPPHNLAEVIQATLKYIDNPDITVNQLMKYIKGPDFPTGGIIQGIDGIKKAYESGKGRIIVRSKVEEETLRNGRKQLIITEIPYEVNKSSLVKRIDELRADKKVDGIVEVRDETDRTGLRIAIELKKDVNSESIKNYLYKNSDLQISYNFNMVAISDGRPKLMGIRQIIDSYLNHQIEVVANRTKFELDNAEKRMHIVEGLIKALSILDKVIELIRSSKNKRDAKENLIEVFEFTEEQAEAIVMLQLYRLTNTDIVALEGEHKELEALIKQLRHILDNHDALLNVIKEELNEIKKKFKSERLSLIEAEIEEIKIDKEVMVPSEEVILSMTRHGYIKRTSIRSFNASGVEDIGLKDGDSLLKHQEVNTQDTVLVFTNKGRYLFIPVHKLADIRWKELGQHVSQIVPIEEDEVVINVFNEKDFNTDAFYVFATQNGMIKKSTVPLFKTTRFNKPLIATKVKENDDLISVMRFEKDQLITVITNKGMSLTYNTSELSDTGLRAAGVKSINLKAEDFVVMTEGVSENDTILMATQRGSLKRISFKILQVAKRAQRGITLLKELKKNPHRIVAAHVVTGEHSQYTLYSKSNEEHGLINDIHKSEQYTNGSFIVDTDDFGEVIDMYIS
T2 sequence (P0C1S7 whole entry): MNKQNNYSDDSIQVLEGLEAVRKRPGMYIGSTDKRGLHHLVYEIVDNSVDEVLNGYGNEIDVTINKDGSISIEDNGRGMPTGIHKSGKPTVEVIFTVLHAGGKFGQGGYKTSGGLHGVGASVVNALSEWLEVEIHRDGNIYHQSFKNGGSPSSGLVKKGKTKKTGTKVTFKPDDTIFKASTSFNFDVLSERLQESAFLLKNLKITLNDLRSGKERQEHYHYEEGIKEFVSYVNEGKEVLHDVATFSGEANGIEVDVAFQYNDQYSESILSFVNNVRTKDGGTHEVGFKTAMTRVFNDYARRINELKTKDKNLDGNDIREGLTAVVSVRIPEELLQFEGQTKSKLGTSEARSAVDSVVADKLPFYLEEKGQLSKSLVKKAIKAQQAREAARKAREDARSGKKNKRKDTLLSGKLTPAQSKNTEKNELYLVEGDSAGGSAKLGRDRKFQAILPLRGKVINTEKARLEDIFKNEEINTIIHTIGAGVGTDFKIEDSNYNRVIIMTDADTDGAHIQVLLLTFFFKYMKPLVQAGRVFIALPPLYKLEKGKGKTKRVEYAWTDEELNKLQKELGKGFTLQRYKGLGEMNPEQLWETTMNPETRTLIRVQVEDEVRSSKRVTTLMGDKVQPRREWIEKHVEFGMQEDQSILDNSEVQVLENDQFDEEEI
T1 sequence (P20083 whole entry): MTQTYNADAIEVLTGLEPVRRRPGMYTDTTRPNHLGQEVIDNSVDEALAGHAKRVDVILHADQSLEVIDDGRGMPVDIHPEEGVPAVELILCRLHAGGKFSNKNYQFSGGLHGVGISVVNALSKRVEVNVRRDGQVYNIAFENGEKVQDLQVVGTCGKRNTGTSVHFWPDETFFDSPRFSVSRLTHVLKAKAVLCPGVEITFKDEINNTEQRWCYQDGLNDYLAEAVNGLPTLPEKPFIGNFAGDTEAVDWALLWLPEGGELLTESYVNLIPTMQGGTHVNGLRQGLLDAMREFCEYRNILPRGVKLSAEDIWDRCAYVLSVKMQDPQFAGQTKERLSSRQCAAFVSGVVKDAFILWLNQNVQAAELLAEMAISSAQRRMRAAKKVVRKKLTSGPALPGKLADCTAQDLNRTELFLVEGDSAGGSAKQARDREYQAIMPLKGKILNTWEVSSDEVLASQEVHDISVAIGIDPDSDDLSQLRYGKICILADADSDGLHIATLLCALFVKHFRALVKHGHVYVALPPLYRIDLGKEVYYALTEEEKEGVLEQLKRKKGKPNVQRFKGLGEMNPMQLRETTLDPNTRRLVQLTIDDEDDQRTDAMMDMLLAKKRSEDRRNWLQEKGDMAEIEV
T1 sequence (P0AFI2 whole entry): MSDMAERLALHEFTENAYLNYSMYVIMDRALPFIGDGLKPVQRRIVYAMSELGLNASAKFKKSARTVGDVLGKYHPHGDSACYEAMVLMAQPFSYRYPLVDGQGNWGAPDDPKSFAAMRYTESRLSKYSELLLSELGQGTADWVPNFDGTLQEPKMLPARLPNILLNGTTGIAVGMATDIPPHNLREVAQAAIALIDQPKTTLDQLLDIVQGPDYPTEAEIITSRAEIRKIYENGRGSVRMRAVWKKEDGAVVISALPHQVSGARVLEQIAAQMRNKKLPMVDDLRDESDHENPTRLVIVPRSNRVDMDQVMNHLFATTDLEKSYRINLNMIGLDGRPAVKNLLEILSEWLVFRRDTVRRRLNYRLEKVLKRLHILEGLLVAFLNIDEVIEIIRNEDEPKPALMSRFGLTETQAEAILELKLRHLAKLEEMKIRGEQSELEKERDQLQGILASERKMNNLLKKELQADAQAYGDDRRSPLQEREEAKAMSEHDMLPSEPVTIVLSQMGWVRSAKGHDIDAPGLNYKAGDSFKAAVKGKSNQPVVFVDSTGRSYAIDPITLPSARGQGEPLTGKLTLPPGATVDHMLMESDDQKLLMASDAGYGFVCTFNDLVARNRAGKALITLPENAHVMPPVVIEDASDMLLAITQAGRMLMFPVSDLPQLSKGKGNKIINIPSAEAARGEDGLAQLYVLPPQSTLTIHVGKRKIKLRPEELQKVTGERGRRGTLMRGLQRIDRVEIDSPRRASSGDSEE

Compound	MIC (K. pneumonia NCTC 13439; K. pneumonia NCTC 13439, read-out: MIC) [µg/mL]	MIC (K. pneumonia MGH 78578; K. pneumonia MGH 78578, read-out: MIC) [µg/mL]	MIC (P. aeruginosa PA01; Pseudomonas aeruginosa, PA01, read-out: MIC) [µg/mL]	effect on topoisomerase IV (E. coli Topo IV)	effect on topoisomerase IV (S. aureus Topo IV)	MIC [1] [µg/mL]	MIC [2] [µg/mL]	MIC (E. faecalis VSE NCTC 775) [µg/mL]	MIC (EMRSA-15) [µg/mL]	MIC [3] [µg/mL]	MIC (EMRSA-16) [µg/mL]	MIC (K. pneumonia NCTC 13439) [µg/mL]	MIC (K. pneumonia MGH 78578) [µg/mL]	MIC (P. aeruginosa PA01; PA01, KMR-14-33 alone) [µg/mL]	MIC (P. aeruginosa PA01; [4]) [µg/mL]	MIC (P. aeruginosa PA01; PA01) [µg/mL]
O=C(O)c1cn(C2CC2)c2cc(N3CCNCC3)c(F)cc2c1=O [CIP, ciprofloxacin, reference compound]	8 to 16 (≈ 24.1 to 48.3 µM)	1 (≈ 3.02 µM)	1 (≈ 3.02 µM)	inhibits	inhibits											
COc1cc2c(cc1OCCCC(=O)Nc1cc(C(=O)Nc3ccc4sc(C(=O)N(C)C)cc4c3)n(C)c1)N=C[C@@H]1CCCN1C2=O [KMR-14-33, (S)—N-(2-(dimethylcarbamoyl)benzo[b]thiophen-5-yl)-4-(4-((7-methoxy-5-oxo-2,3,5,11a-tetrahydro-1H-benzo[e]pyrrolo[1,2-a][1,4]-diazepin-8-yl)oxy)butanamido)-1-methyl-1H-pyrrole-2-carboxamide]						0.03 (≈ 0.0457 µM)	0.03 (≈ 0.0457 µM)	0.03 (≈ 0.0457 µM)	0.03 (≈ 0.0457 µM)	0.03 (≈ 0.0457 µM)	0.06 (≈ 0.0914 µM)	2 (≈ 3.05 µM)	1 (≈ 1.52 µM)	> 32	> 32	
COc1cc2c(cc1OCCCC(=O)Nc1cc(C(=O)Nc3ccc4oc(C(=O)N5CCSCC5)cc4c3)n(C)c1)N=C[C@@H]1CCCN1C2=O [PP-A148, (S)-4-(4-((7-methoxy-5-oxo-2,3,5,11a-tetrahydro-1H-benzo-[e]pyrrolo[1,2-a][1,4]diazepin-8-yl)oxy)butanamido)-1-methyl-N-(2-(thiomorpholine-4-carbonyl)benzofuran-5-yl)-1H-pyrrole-2-carboxamide]				does not inhibit	does not inhibit	0.01 (≈ 0.0143 µM)	0.25 to 0.5 (≈ 0.358 to 0.716 µM)	1 (≈ 1.43 µM)	2 (≈ 2.86 µM)	0.5 (≈ 0.716 µM)	2 (≈ 2.86 µM)	4 to 8 (≈ 5.72 to 11.4 µM)	4 to 8 (≈ 5.72 to 11.4 µM)		128 (≈ 183 µM)	>128
